Reference: patent US20190308988A1, “OPIOID RECEPTOR ANTAGONIST PRODRUGS” (Nirsum Laboratories, Inc., priority 2017, published 2019)
Values after ≈ are worked out from the molar mass of the structure shown. Structures can show the parent of a compound that is named as a salt. Where two headings read alike, the source gives them in different places.

What was measured:
[1] = Solubility determination in oil (Table 10); conditions: thermodynamic from solid; for solubility at 24 h: 25 °C, Obs. Temp. 25 °C; for solubility thermodynamic / solubility: 40 °C, Obs. Temp. 40 °C; for solubility thermodynamic: water, Equilibrium solubility: Water
Method: A known amount of test substance (˜40 mg) was weighed into the vial, 100 μL of oil was added and heated to 60° C. and then system was slurried to reach equilibrium. […] Extra oil was added into the vial once compound precipitated out and then the system was re-equilibrated at 1000 rpm at room temperature (25° C.). Final concentration was determined by HPLC method as described below in Table 6a and 6b.

[2] = Rat pharmacokinetic studies, intramuscular administration; type: in vivo, male Sprague Dawley Rats; conditions: for AUC(0-inf): read-out: AUC0-inf (ng · h/mL) prodrug
Method: The purpose of this study is to determine the pharmacokinetics of test compounds in plasma, following intramuscular administration to male Sprague Dawley Rats (n=3, unless otherwise specified).
The dose formulation of 400 mg base equivalents/ml in sesame oil+1% benzyl alcohol (unless otherwise specified) was administered by intramuscular injection. The dose volume was determined by the animals' body weight determined on the morning of dosing day.
Each collected blood sample was centrifuged for 4 minutes at 4° C. and 10000 rpm for plasma collection. Plasma was collected and transferred into a pre-labeled PP tube in dry ice at each time point and precipitated immediately using ACN at a ratio of 1:4 (plasma:ACN). Centrifuged again (10 minutes, 12000 rpm) and obtain the supernatant.
LC-MS/MS methods for the quantitative determination of test compound in biological matrix were developed. […] The sample analysis was performed concurrently with a set of calibration standards and two sets of QC samples using the LC-MS/MS method.
Plasma concentration versus time data was analyzed by non-compartmental approaches using the Phoenix WinNonlin 6.3 software program. Cmax, Tmax, T1/2, AUC(0-t), AUC(0-inf), MRT(0-t), MRT(0-inf) and graphs of plasma concentration versus time profile were prepared.

[3] = target: T1, KOR (Homo sapiens, UniProt P41145); assay: Opioid receptor binding assay, KOR ([3H]Diprenorphine)
T1 construct: expressed in transfected cells
T1 sequence (P41145 whole entry): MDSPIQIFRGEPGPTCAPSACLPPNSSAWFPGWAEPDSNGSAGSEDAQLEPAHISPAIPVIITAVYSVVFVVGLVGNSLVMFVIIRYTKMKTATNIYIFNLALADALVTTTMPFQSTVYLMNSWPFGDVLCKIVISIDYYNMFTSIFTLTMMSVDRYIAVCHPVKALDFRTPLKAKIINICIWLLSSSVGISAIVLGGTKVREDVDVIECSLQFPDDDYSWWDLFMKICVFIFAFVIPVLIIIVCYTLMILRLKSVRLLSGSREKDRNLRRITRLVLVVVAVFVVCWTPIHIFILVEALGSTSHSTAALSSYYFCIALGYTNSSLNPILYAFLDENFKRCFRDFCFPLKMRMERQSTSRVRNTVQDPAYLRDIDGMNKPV
Method: (§1) Receptor binding assays were performed to assess the ability of compounds to inhibit binding to radiolabeled ligand.
(§2) The stable cell lines were established and prepared cell membrane obtained using these cell lines.
(§3) 1) Transfer 1 μl of specified concentration compound to assay plate according to the plate map for nonspecific binding. Transfer 1 μl of DMSO to assay plate according to plate map for total binding. 2) Follow the plate map. Dispense 99 μl of membrane stocks into the plate. 3) Add 100 μl of radio ligand. 4) Seal the plates. Incubate at RT for 1 hour. 5) Soak the Unifilter-96 GF/C filter plates with 50 μl of 0.3% PEI per well for at least 0.5 hour at room temperature. 6) When binding assays are completed, filter the reaction mixture through GF/C plates using Perkin Elmer Filtermate Harvester, and then wash each plate for 4 times with cold wash buffer. 7) Dry the filter plates for 1 hour at 50 degrees. 8) After drying, seal the bottom of the filter plate wells using Perkin Elmer Unifilter-96 backing seal tape. Add 50 μl of Perkin Elmer Microscint 20 cocktail. Seal top of filter plates with Perkin Elmer TopSeal-A sealing film. 9) Count ^3H trapped on filter using Perkin Elmer MicroBeta2 Reader second day. 10) Analyze the data with GraphPad Prism 5. Calculate the “Inhibition [% Control]” using the equation: % Inh=(1−Background subtracted Assay value/Background subtracted HC value)*100.

[4] = target: T2, MOR (Homo sapiens, UniProt P35372); assay: Opioid receptor binding assay, MOR ([3H]DAMGO)
T2 construct: expressed in transfected cells
T2 sequence (P35372 whole entry): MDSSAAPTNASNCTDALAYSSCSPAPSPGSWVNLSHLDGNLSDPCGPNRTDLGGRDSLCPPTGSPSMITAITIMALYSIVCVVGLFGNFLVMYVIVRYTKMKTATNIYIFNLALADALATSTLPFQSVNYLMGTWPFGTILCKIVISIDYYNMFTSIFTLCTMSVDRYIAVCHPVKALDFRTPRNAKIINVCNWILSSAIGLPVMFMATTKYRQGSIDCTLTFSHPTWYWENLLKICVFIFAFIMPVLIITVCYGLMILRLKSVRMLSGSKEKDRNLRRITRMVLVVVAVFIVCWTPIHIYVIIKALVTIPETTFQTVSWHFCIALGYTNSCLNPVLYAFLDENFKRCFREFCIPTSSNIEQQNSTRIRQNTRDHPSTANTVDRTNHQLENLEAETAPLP
Method: as §1, §2, §3

[5] = target: T3, DOR (Homo sapiens, UniProt P41143); assay: Opioid receptor binding assay, DOR ([3H]-DADLE)
T3 construct: expressed in transfected cells
T3 sequence (P41143 whole entry): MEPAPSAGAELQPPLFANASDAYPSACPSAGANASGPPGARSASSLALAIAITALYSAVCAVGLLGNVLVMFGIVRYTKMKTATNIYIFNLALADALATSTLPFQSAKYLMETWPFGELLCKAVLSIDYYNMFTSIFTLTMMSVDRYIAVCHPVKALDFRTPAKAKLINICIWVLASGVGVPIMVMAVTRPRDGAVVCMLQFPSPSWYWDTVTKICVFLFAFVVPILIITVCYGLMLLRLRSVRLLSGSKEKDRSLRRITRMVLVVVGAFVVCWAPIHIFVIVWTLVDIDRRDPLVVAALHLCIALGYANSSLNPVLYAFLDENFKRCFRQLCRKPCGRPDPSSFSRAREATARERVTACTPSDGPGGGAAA
Method: as §1, §2, §3

[6] = oil or lipid, Approximate Solubility in Excipient: Cottonseed oil, Heating Temp. 60 °C
[7] = oil or lipid, Approximate Solubility in Excipient: Sesame oil, Heating Temp. 60 °C
[8] = male, Sprague Dawley, rat, plasma, intramuscular, 0.8 mg/kg

| SMILES | solubility at 24 h [1, 6] [mg/mL] | solubility at 24 h [1, 7] [mg/mL] | solubility thermodynamic ([1]; Heating Temp. 40 °C) [mg/mL] | IC50 [3] [nM] | IC50 [4] [nM] | IC50 [5] [nM] | other results |
| --- | --- | --- | --- | --- | --- | --- | --- |
| CCCCCCCCCCCCOC(=O)OCOc1ccc2c3c1O[C@H]1C(=O)CC[C@@]4(O)C(C2)N(CC2CC2)CC[C@]314 [Compound 29, (((4aS,7aR,12bS)-3-(cyclopropylmethyl)-4a-hydroxy-7-oxo-2,3,4,4a,5,6,7,7a-octahydro-1H-4,12-methanobenzofuro[3,2-e]isoquinolin-9-yl)oxy)methyl dodecyl carbonate] | > 410 | > 416 | < 0.001 |  |  |  | AUC(0-inf) ([2]; male, Sprague Dawley, rat, plasma, im, 165 mg/kg, Sesame oil + 1% Benzyl Alcohol): 74.8 ng·h/mL |
| CCCCCCCCOC(=O)Oc1ccc2c3c1O[C@H]1C(=O)CC[C@@]4(O)C(C2)N(CC2CC2)CC[C@]314 [Compound 23, (4aS,7aR,12bS)-3-(cyclopropylmethyl)-4a-hydroxy-7-oxo-2,3,4,4a,5,6,7,7a-octahydro-1H-4,12-methanobenzofuro[3,2-e]isoquinolin-9-yl octyl carbonate] | > 408 | > 424 |  | 11.7 | 2.8 | 107 | solubility [1, 6]: > 412 mg/mL; solubility ([1]; organic solvent or mixture, Approximate Solubility in Excipient: Ethanol, Heating Temp. 60 °C): > 419 mg/mL; solubility thermodynamic ([1]; Heating Temp. 60 °C): 0.0094 mg/mL (≈ 0.0189 mM) |
| C=C1CC[C@@]2(O)C3Cc4ccc(OC(=O)OCCCCCCCCCCCCC)c5c4[C@@]2(CCN3CC2CC2)[C@H]1O5 [Compound 30, (4aS,7aS,12bS)-3-(cyclopropylmethyl)-4a-hydroxy-7-methylene-2,3,4,4a,5,6,7,7a-octahydro-1H-4,12-methanobenzofuro[3,2-e]isoquinolin-9-yl tridecyl carbonate] | 252 to 404 (≈ 446 to 714 mM) | 253 to 399 (≈ 446 to 704 mM) | < 0.001 | 88.7 | 9 | 1850 |  |
| C=C1CC[C@@]2(O)C3Cc4ccc(OC(=O)OCCCCCCCCCCCCCCC)c5c4[C@@]2(CCN3CC2CC2)[C@H]1O5 [Compound 32, (4aS,7aS,12bS)-3-(cyclopropylmethyl)-4a-hydroxy-7-methylene-2,3,4,4a,5,6,7,7a-octahydro-1H-4,12-methanobenzofuro[3,2-e]isoquinolin-9-yl pentadecyl carbonate] | > 396 | > 410 | 0.0328 (≈ 0.0552 mM) | 2120 | 17.4 | > 10000 |  |
| C=C1CC[C@@]2(O)C3Cc4ccc(OCOC(=O)OCCCCCCCCCCCCCC)c5c4[C@@]2(CCN3CC2CC2)[C@H]1O5 [Compound 25, (((4aS,7aS,12bS)-3-(cyclopropylmethyl)-4a-hydroxy-7-methylene-2,3,4,4a,5,6,7,7a-octahydro-1H-4,12-methanobenzofuro[3,2-e]isoquinolin-9-yl)oxy)methyl tetradecyl carbonate] | > 414 | > 404 | < 0.001 | 889 | 5 | 9540 |  |
| C=C1CC[C@@]2(O)C3Cc4ccc(OCOC(=O)CCCCCCCCCCC)c5c4[C@@]2(CCN3CC2CC2)[C@H]1O5 [Compound 44, (((4aS,7aS,12bS)-3-(cyclopropylmethyl)-4a-hydroxy-7-methylene-2,3,4,4a,5,6,7,7a-octahydro-1H-4,12-methanobenzofuro[3,2-e]isoquinolin-9-yl)oxy)methyl dodecanoate] | > 407 | 208 to 231 (≈ 377 to 419 mM) | < 0.001 | 18.4 | 3.03 | 190 |  |
| C=C1CC[C@@]2(O)[C@H]3Cc4ccc(O)c5c4[C@@]2(CCN3CC2CC2)[C@H]1O5 [nalmefene HCL, reference compound] |  |  |  |  |  |  | concentration at 1 h [2, 8]: 29.4 ng/mL; concentration at 2 h [2, 8]: 2.09 ng/mL; concentration at 4 h [2, 8]: 0.212 ng/mL; concentration at 8 h [2, 8]: 0.0178 ng/mL |
| C=C1CC[C@@]2(O)C3Cc4ccc(OC(=O)CCCCCCCCCCC)c5c4[C@@]2(CCN3CC2CC2)[C@H]1O5 [Compound 59, (4aS,7aS,12bS)-3-(cyclopropylmethyl)-4a-hydroxy-7-methylene-2,3,4,4a,5,6,7,7a-octahydro-1H-4,12-methanobenzofuro[3,2-e]isoquinolin-9-yl dodecanoate, reference compound] |  |  |  |  |  |  | AUC(0-inf) ([2]; male, Sprague Dawley, rat, plasma, im, 17 mg/kg, Sesame oil + 1% Benzyl Alcohol): 10.4 ng·h/mL; half-life ([2]; male, Sprague Dawley, rat, plasma, im, 17 mg/kg, Sesame oil + 1% Benzyl Alcohol, read-out: Half-life t1/2 (hour) prodrug (converted)): 15.2 h |
| C=C1CC[C@@]2(O)C3Cc4ccc(OCOC(=O)OCCCCCCCCCCCCCCCC)c5c4[C@@]2(CCN3CC2CC2)[C@H]1O5 [Compound 34, (((4aS,7aS,12bS)-3-(cyclopropylmethyl)-4a-hydroxy-7-methylene-2,3,4,4a,5,6,7,7a-octahydro-1H-4,12-methanobenzofuro[3,2-e]isoquinolin-9-yl)oxy)methyl hexadecyl carbonate] | > 404 | > 405 | < 0.001 | 1770 | 12.5 | > 10000 |  |
| C=C1CC[C@@]2(O)[C@H]3Cc4ccc(O)c5c4[C@@]2(CCN3CC2CC2)[C@H]1O5.Cl [Nalmefene HCl - IR] |  |  |  |  |  |  | AUC0-inf (ng · h/mL) nalmefene ([2]; 0.80 mg/kg, saline): 66.0 ng·h/mL; Terminal Half-life t1/2 (hour) nalmefene ([2]; 0.80 mg/kg, saline): 0.87 h |
| C=C1CC[C@@]2(O)C3Cc4ccc(OCOC(=O)CCCCCCCCCCCCCCC)c5c4[C@@]2(CCN3CC2CC2)[C@H]1O5 [Compound 46, (((4aS,7aS,12bS)-3-(cyclopropylmethyl)-4a-hydroxy-7-methylene-2,3,4,4a,5,6,7,7a-octahydro-1H-4,12-methanobenzofuro[3,2-e]isoquinolin-9-yl)oxy)methyl hexadecanoate] | > 396 | 202 to 269 (≈ 332 to 443 mM) | < 0.001 | 33.9 | 4.52 | 1360 |  |
